Measurements reported in the NIST ThermoML archive (doi:10.1021/je049918m).
Values joined by “and” are separate entries in the source; they are usually repeats but may differ in a detail not shown here. Equal values may be shown once. Numbers after ± are expanded uncertainties.

Settings: Liquid, Falling or rolling sphere viscometry

## [2H]O[2H] [water-d2]
255.65 K, 212200 kPa
  viscosity: 3.963 ± 0.055 mPa·s
255.65 K, 220100 kPa
  viscosity: 3.973 ± 0.055 mPa·s
255.65 K, 239200 kPa
  viscosity: 4.012 ± 0.055 mPa·s
255.65 K, 249500 kPa
  viscosity: 4.036 ± 0.056 mPa·s
258.15 K, 196900 kPa
  viscosity: 3.566 ± 0.049 mPa·s
258.15 K, 215300 kPa
  viscosity: 3.588 ± 0.049 mPa·s
258.15 K, 242900 kPa
  viscosity: 3.629 ± 0.05 mPa·s
258.15 K, 271000 kPa
  viscosity: 3.697 ± 0.051 mPa·s
258.15 K, 298500 kPa
  viscosity: 3.777 ± 0.052 mPa·s
258.15 K, 315600 kPa
  viscosity: 3.835 ± 0.053 mPa·s
263.15 K, 153200 kPa
  viscosity: 2.939 ± 0.04 mPa·s
263.15 K, 160800 kPa
  viscosity: 2.937 ± 0.04 mPa·s
263.15 K, 185300 kPa
  viscosity: 2.944 ± 0.04 mPa·s
263.15 K, 200800 kPa
  viscosity: 2.953 ± 0.041 mPa·s
263.15 K, 249500 kPa
  viscosity: 3.02 ± 0.042 mPa·s
263.15 K, 299600 kPa
  viscosity: 3.125 ± 0.043 mPa·s
263.15 K, 347100 kPa
  viscosity: 3.26 ± 0.045 mPa·s
263.15 K, 383400 kPa
  viscosity: 3.381 ± 0.047 mPa·s
268.15 K, 109700 kPa
  viscosity: 2.494 ± 0.034 mPa·s
268.15 K, 125300 kPa
  viscosity: 2.475 ± 0.034 mPa·s
268.15 K, 150900 kPa
  viscosity: 2.468 ± 0.034 mPa·s
268.15 K, 174700 kPa
  viscosity: 2.464 ± 0.034 mPa·s
268.15 K, 201200 kPa
  viscosity: 2.481 ± 0.034 mPa·s
268.15 K, 251400 kPa
  viscosity: 2.535 ± 0.035 mPa·s
268.15 K, 289200 kPa
  viscosity: 2.601 ± 0.036 mPa·s
268.15 K, 325500 kPa
  viscosity: 2.675 ± 0.037 mPa·s
268.15 K, 390600 kPa
  viscosity: 2.85 ± 0.039 mPa·s
273.15 K, 52000 kPa
  viscosity: 2.196 ± 0.03 mPa·s
273.15 K, 69600 kPa
  viscosity: 2.159 ± 0.03 mPa·s
273.15 K, 99700 kPa
  viscosity: 2.116 ± 0.029 mPa·s
273.15 K, 130400 kPa
  viscosity: 2.098 ± 0.029 mPa·s
273.15 K, 150600 kPa
  viscosity: 2.096 ± 0.029 mPa·s
273.15 K, 177300 kPa
  viscosity: 2.103 ± 0.029 mPa·s
273.15 K, 204300 kPa
  viscosity: 2.119 ± 0.029 mPa·s
273.15 K, 223000 kPa
  viscosity: 2.135 ± 0.029 mPa·s
273.15 K, 252900 kPa
  viscosity: 2.165 ± 0.03 mPa·s
273.15 K, 279500 kPa
  viscosity: 2.203 ± 0.03 mPa·s
273.15 K, 302900 kPa
  viscosity: 2.234 ± 0.031 mPa·s
273.15 K, 350500 kPa
  viscosity: 2.318 ± 0.032 mPa·s
273.15 K, 357500 kPa
  viscosity: 2.336 ± 0.032 mPa·s
273.15 K, 395200 kPa
  viscosity: 2.435 ± 0.034 mPa·s
278.15 K, 100 kPa
  viscosity: 1.987 ± 0.027 mPa·s
278.15 K, 3100 kPa
  viscosity: 1.977 ± 0.027 mPa·s
278.15 K, 5600 kPa
  viscosity: 1.968 ± 0.027 mPa·s
278.15 K, 8100 kPa
  viscosity: 1.961 ± 0.027 mPa·s
278.15 K, 10800 kPa
  viscosity: 1.952 ± 0.027 mPa·s
278.15 K, 25900 kPa
  viscosity: 1.911 ± 0.026 mPa·s
278.15 K, 50800 kPa
  viscosity: 1.862 ± 0.026 mPa·s
278.15 K, 75600 kPa
  viscosity: 1.829 ± 0.025 mPa·s
278.15 K, 100700 kPa
  viscosity: 1.811 ± 0.025 mPa·s
278.15 K, 125600 kPa
  viscosity: 1.803 ± 0.025 mPa·s
278.15 K, 150500 kPa
  viscosity: 1.802 ± 0.025 mPa·s
278.15 K, 174500 kPa
  viscosity: 1.809 ± 0.025 mPa·s
278.15 K, 199100 kPa
  viscosity: 1.822 ± 0.025 mPa·s
278.15 K, 224100 kPa
  viscosity: 1.841 ± 0.025 mPa·s
278.15 K, 249600 kPa
  viscosity: 1.865 ± 0.026 mPa·s
278.15 K, 299700 kPa
  viscosity: 1.922 ± 0.026 mPa·s
278.15 K, 349100 kPa
  viscosity: 1.993 ± 0.027 mPa·s
283.15 K, 100 kPa
  viscosity: 1.677 ± 0.023 mPa·s
283.15 K, 200 kPa
  viscosity: 1.676 ± 0.023 mPa·s and 1.677 ± 0.023 mPa·s
283.15 K, 3000 kPa
  viscosity: 1.67 ± 0.023 mPa·s
283.15 K, 5600 kPa
  viscosity: 1.665 ± 0.023 mPa·s
283.15 K, 8100 kPa
  viscosity: 1.66 ± 0.023 mPa·s
283.15 K, 10800 kPa
  viscosity: 1.655 ± 0.023 mPa·s
283.15 K, 25800 kPa
  viscosity: 1.629 ± 0.022 mPa·s
283.15 K, 50800 kPa
  viscosity: 1.597 ± 0.022 mPa·s and 1.598 ± 0.022 mPa·s
283.15 K, 100800 kPa
  viscosity: 1.569 ± 0.022 mPa·s and 1.567 ± 0.022 mPa·s
283.15 K, 125500 kPa
  viscosity: 1.566 ± 0.022 mPa·s
283.15 K, 150600 kPa
  viscosity: 1.57 ± 0.022 mPa·s
283.15 K, 150800 kPa
  viscosity: 1.569 ± 0.022 mPa·s
283.15 K, 175500 kPa
  viscosity: 1.579 ± 0.022 mPa·s
283.15 K, 199400 kPa
  viscosity: 1.592 ± 0.022 mPa·s
283.15 K, 199700 kPa
  viscosity: 1.592 ± 0.022 mPa·s
283.15 K, 224300 kPa
  viscosity: 1.608 ± 0.022 mPa·s
283.15 K, 249600 kPa
  viscosity: 1.629 ± 0.022 mPa·s
283.15 K, 249700 kPa
  viscosity: 1.63 ± 0.022 mPa·s
283.15 K, 299200 kPa
  viscosity: 1.678 ± 0.03 mPa·s
283.15 K, 299600 kPa
  viscosity: 1.678 ± 0.03 mPa·s
283.15 K, 348600 kPa
  viscosity: 1.737 ± 0.024 mPa·s
283.15 K, 348700 kPa
  viscosity: 1.737 ± 0.024 mPa·s
298.15 K, 100 kPa
  viscosity: 1.097 ± 0.015 mPa·s [middle of 6 runs]
298.15 K, 200 kPa
  viscosity: 1.095 ± 0.015 mPa·s
298.15 K, 5600 kPa
  viscosity: 1.092 ± 0.015 mPa·s
298.15 K, 8000 kPa
  viscosity: 1.09 ± 0.015 mPa·s
298.15 K, 10300 kPa
  viscosity: 1.091 ± 0.015 mPa·s
298.15 K, 10700 kPa
  viscosity: 1.09 ± 0.015 mPa·s
298.15 K, 25700 kPa
  viscosity: 1.084 ± 0.015 mPa·s
298.15 K, 30700 kPa
  viscosity: 1.084 ± 0.015 mPa·s
298.15 K, 50700 kPa
  viscosity: 1.079 ± 0.015 mPa·s and 1.081 ± 0.015 mPa·s
298.15 K, 60700 kPa
  viscosity: 1.079 ± 0.015 mPa·s
298.15 K, 75600 kPa
  viscosity: 1.08 ± 0.015 mPa·s
298.15 K, 90600 kPa
  viscosity: 1.081 ± 0.015 mPa·s
298.15 K, 90700 kPa
  viscosity: 1.081 ± 0.015 mPa·s
298.15 K, 100600 kPa
  viscosity: 1.081 ± 0.015 mPa·s
298.15 K, 120700 kPa
  viscosity: 1.086 ± 0.015 mPa·s
298.15 K, 125600 kPa
  viscosity: 1.087 ± 0.015 mPa·s
298.15 K, 130600 kPa
  viscosity: 1.089 ± 0.015 mPa·s
298.15 K, 150600 kPa
  viscosity: 1.094 ± 0.015 mPa·s and 1.095 ± 0.015 mPa·s
298.15 K, 170500 kPa
  viscosity: 1.104 ± 0.015 mPa·s
298.15 K, 175600 kPa
  viscosity: 1.105 ± 0.015 mPa·s
298.15 K, 180600 kPa
  viscosity: 1.108 ± 0.015 mPa·s
298.15 K, 200600 kPa
  viscosity: 1.117 ± 0.015 mPa·s
298.15 K, 210200 kPa
  viscosity: 1.122 ± 0.015 mPa·s
298.15 K, 210600 kPa
  viscosity: 1.123 ± 0.015 mPa·s
298.15 K, 225500 kPa
  viscosity: 1.131 ± 0.016 mPa·s
298.15 K, 240600 kPa
  viscosity: 1.141 ± 0.016 mPa·s
298.15 K, 249700 kPa
  viscosity: 1.146 ± 0.016 mPa·s
298.15 K, 270500 kPa
  viscosity: 1.16 ± 0.016 mPa·s
298.15 K, 299600 kPa
  viscosity: 1.181 ± 0.016 mPa·s
298.15 K, 300300 kPa
  viscosity: 1.182 ± 0.016 mPa·s
298.15 K, 330100 kPa
  viscosity: 1.205 ± 0.017 mPa·s
298.15 K, 331900 kPa
  viscosity: 1.205 ± 0.017 mPa·s
298.15 K, 349000 kPa
  viscosity: 1.221 ± 0.017 mPa·s
298.15 K, 359800 kPa
  viscosity: 1.23 ± 0.017 mPa·s
298.15 K, 389400 kPa
  viscosity: 1.257 ± 0.017 mPa·s
